{
  "source": "patent US8959984B2",
  "about": "“Proteome-wide quantification of small molecule binding to cellular target proteins” (priority 2007, dated 2015)",
  "key": {"EphB2": {"molecular_target": "T1, EphB2 (Homo sapiens, UniProt P29323)", "T1 sequence (P29323 19-1055)": "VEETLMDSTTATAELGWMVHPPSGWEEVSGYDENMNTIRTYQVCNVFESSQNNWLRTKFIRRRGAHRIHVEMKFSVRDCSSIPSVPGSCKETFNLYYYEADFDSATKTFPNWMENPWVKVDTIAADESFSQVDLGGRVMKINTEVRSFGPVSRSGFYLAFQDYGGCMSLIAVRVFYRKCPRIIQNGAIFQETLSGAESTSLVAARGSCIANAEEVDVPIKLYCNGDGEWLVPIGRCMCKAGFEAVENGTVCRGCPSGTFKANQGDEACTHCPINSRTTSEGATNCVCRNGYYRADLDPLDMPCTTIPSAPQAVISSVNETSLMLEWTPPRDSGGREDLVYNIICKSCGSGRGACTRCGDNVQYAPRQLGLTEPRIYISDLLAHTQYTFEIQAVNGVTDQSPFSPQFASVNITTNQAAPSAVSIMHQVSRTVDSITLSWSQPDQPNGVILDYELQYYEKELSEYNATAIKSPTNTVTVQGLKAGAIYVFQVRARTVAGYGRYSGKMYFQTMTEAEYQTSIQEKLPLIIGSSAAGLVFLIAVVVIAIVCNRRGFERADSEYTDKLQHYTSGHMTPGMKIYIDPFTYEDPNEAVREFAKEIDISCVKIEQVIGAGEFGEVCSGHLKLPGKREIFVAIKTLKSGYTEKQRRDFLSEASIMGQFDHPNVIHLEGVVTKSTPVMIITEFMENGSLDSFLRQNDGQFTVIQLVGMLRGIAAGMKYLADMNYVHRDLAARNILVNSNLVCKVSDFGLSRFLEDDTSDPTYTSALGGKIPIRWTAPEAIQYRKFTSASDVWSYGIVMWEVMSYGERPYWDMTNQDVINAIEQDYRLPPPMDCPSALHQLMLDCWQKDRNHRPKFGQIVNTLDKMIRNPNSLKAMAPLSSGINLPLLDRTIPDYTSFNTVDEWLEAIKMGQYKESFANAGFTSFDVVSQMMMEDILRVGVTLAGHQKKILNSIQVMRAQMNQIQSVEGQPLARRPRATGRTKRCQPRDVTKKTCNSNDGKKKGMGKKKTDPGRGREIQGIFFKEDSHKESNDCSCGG", "assay": "binding to immobilized V16742 (IVA1/IVA2, HeLa lysate, MS)"}, "ACAD10": {"molecular_target": "T2, ACAD10 (Homo sapiens, UniProt Q6JQN1)", "T2 sequence (Q6JQN1 1-1059)": "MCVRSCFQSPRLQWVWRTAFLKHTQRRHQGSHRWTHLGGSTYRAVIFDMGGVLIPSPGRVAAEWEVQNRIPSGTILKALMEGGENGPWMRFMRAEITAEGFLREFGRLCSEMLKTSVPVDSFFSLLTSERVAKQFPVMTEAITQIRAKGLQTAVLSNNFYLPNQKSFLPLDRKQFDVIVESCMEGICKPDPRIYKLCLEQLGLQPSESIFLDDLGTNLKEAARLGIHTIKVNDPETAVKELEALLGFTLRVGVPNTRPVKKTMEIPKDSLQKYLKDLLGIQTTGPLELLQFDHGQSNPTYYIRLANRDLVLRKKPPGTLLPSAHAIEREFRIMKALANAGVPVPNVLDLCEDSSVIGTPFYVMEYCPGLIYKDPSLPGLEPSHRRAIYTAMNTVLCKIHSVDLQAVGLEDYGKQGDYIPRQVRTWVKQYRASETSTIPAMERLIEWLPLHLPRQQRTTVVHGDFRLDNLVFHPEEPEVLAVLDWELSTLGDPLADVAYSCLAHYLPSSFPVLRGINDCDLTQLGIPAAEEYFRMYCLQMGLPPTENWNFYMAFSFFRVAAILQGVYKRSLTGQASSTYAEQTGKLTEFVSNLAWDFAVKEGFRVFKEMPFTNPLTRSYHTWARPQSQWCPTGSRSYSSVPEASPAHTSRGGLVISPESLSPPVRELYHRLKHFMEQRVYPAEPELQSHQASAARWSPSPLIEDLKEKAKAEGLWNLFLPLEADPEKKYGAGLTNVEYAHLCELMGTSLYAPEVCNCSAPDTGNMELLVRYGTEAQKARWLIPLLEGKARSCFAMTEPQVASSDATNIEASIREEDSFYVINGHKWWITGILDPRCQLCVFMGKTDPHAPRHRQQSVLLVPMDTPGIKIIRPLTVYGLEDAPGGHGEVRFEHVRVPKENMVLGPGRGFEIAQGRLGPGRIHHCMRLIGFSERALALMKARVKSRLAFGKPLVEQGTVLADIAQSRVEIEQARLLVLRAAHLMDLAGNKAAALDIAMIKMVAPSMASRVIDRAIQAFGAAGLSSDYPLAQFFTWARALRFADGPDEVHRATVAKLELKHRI"}, "RPL7A": {"molecular_target": "RPL7A (Homo sapiens, UniProt P62424)"}, "ALK2 (ACVR1)": {"molecular_target": "T3, ALK2 (ACVR1) (Homo sapiens, UniProt Q04771)", "T3 sequence (Q04771 21-509)": "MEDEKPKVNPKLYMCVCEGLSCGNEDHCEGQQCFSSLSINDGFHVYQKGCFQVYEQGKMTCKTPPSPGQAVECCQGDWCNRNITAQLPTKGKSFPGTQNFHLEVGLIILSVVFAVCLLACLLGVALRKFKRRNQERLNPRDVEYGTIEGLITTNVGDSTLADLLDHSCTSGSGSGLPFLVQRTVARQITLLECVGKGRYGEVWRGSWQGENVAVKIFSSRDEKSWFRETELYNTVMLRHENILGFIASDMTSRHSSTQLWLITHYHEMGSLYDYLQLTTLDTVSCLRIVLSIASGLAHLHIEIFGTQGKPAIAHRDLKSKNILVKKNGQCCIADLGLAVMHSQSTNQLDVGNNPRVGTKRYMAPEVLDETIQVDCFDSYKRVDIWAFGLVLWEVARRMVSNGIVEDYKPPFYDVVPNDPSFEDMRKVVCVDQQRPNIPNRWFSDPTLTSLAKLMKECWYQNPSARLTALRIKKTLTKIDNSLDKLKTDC"}},
  "note": "Read-outs that look alike come from different tables or passages of the source.",
  "data": [
    {"molecule": "CC(C)n1c(=O)ccc2cnc(Nc3ccc(OCCN)cc3)nc21", "note": "[compound 16742]", "values": [
      {"measurement": "Percent bound at 1.87 μM 16742 conc", "setting": "EphB2; EXPERIMENT 1", "value": 4.79, "unit": "%"},
      {"measurement": "Percent bound at 8.74 μM 16742 conc", "setting": "EphB2; EXPERIMENT 1", "value": 17.01, "unit": "%"},
      {"measurement": "Percent bound at 52 μM 16742 conc", "setting": "EphB2; EXPERIMENT 1", "value": 66.97, "unit": "%"},
      {"measurement": "Kd", "setting": "EphB2; EXPERIMENT 1, read-out: Kd", "value": 30.6, "unit": "µM"},
      {"measurement": "Percent bound at 1.87 μM 16742 conc", "setting": "EphB2; EXPERIMENT 2", "value": 2.86, "unit": "%"},
      {"measurement": "Percent bound at 8.74 μM 16742 conc", "setting": "EphB2; EXPERIMENT 2", "value": 13.05, "unit": "%"},
      {"measurement": "Percent bound at 52 μM 16742 conc", "setting": "EphB2; EXPERIMENT 2", "value": 57.74, "unit": "%"},
      {"measurement": "Kd", "setting": "EphB2; EXPERIMENT 2, read-out: Kd", "value": 42.3, "unit": "µM"},
      {"measurement": "Kd", "setting": "EphB2; read-out: Kd Avg", "value": 36.5, "unit": "µM"}
    ]},
    {"molecule": "COc1cc2ncnc(Nc3ccc(F)c(Cl)c3)c2cc1OCCCN1CCOCC1", "note": "[gefitinib]", "values": [
      {"measurement": "rAVERAGE (10 nM/0 nM Gef.)", "setting": "ACAD10", "value": 1.17},
      {"measurement": "rAVERAGE (100 nM/0 nM Gef.)", "setting": "ACAD10", "value": 0.86},
      {"measurement": "rAVERAGE (1000 nM/0 nM Gef.)", "setting": "ACAD10", "value": 1.07},
      {"measurement": "rAVERAGE (10000 nM/0 nM Gef.)", "setting": "ACAD10", "value": 0.24},
      {"measurement": "rAVERAGE (10 nM/0 nM Gef.)", "setting": "RPL7A", "value": 0.92},
      {"measurement": "rAVERAGE (100 nM/0 nM Gef.)", "setting": "RPL7A", "value": 0.88},
      {"measurement": "rAVERAGE (1000 nM/0 nM Gef.)", "setting": "RPL7A", "value": 0.59},
      {"measurement": "rAVERAGE (10000 nM/0 nM Gef.)", "setting": "RPL7A", "value": 0.79},
      {"measurement": "rAVERAGE (10 nM/0 nM Gef.)", "setting": "ALK2 (ACVR1)", "value": 0.76},
      {"measurement": "rAVERAGE (100 nM/0 nM Gef.)", "setting": "ALK2 (ACVR1)", "value": 1.25},
      {"measurement": "rAVERAGE (1000 nM/0 nM Gef.)", "setting": "ALK2 (ACVR1)", "value": 0.77},
      {"measurement": "rAVERAGE (10000 nM/0 nM Gef.)", "setting": "ALK2 (ACVR1)", "value": 0.85}
    ]}
  ]
}
